Data set [1] can be described thus: The drug is tested on Blautia hansenii strain: DSM20583 for biotransformation. The drug concentrations were measured before and after a 12-h incubation by liquid-chromatography-coupled mass spectrometry (LC–MS). The note with it: 2 µM.
The conditions of data set [2]: bacteroides intestinalis, 12 h, 2 µM.
Description: The drug is tested on Bacteroides intestinalis strain: DSM17393 for biotransformation. The drug concentrations were measured before and after a 12-h incubation by liquid-chromatography-coupled mass spectrometry (LC–MS)
For data set [3] the following is noted: enterocloster bolteae, 12 h, 2 µM.
Description: The drug is tested on Clostridium bolteae strain: ATCCBAA-613 for biotransformation. The drug concentrations were measured before and after a 12-h incubation by liquid-chromatography-coupled mass spectrometry (LC–MS)
Data set [4] can be described thus: The drug is tested on Bacteroides fragilis strain: HMW615 for biotransformation. The drug concentrations were measured before and after a 12-h incubation by liquid-chromatography-coupled mass spectrometry (LC–MS). To be noted: 2 µM.
The nature of data set [5]: The drug is tested on Bacteroides xylanisolvens strain: DSM18836 for biotransformation. The drug concentrations were measured before and after a 12-h incubation by liquid-chromatography-coupled mass spectrometry (LC–MS). To be noted: 2 µM.
Data set [6] can be described thus: The drug is tested on Providencia stuartii strain: ATCC25827 for biotransformation. The drug concentrations were measured before and after a 12-h incubation by liquid-chromatography-coupled mass spectrometry (LC–MS). To be noted: 2 µM.
The conditions of data set [7]: akkermansia muciniphila, 12 h, 2 µM.
Description: The drug is tested on Akkermansia muciniphila strain: ATCC BAA-835 for biotransformation. The drug concentrations were measured before and after a 12-h incubation by liquid-chromatography-coupled mass spectrometry (LC–MS)
A short description of data set [8]: The drug is tested on Bacteroides cellulosilyticus strain: DSM14838 for biotransformation. The drug concentrations were measured before and after a 12-h incubation by liquid-chromatography-coupled mass spectrometry (LC–MS). The note with it: 2 µM.
The nature of data set [9]: The drug is tested on Coprococcus comes strain: ATCC27758 for biotransformation. The drug concentrations were measured before and after a 12-h incubation by liquid-chromatography-coupled mass spectrometry (LC–MS). To be noted: 2 µM. Further details: dose 2 uM, timepoint 0 vs 12 hours. Type of data set: ADME.
Data set [10] in a line: The drug is tested on Bacteroides coprophilus strain: DSM18228 for biotransformation. The drug concentrations were measured before and after a 12-h incubation by liquid-chromatography-coupled mass spectrometry (LC–MS). To be noted: 2 µM.
Data set [11] in a line: The drug is tested on Edwardsiella tarda strain: ATCC23685 for biotransformation. The drug concentrations were measured before and after a 12-h incubation by liquid-chromatography-coupled mass spectrometry (LC–MS). To be noted: 2 µM.
The conditions of data set [12]: parabacteroides distasonis, 12 h, 2 µM.
Description: The drug is tested on Parabacteroides distasonis strain: ATCC8503 for biotransformation. The drug concentrations were measured before and after a 12-h incubation by liquid-chromatography-coupled mass spectrometry (LC–MS)
The nature of data set [13]: The drug is tested on Dorea formicigenerans strain: ATCC27755 for biotransformation. The drug concentrations were measured before and after a 12-h incubation by liquid-chromatography-coupled mass spectrometry (LC–MS). The note with it: 2 µM.
The conditions of data set [14]: bacteroides stercoris, 12 h, 2 µM.
Description: The drug is tested on Bacteroides stercoris strain: ATCC43183 for biotransformation. The drug concentrations were measured before and after a 12-h incubation by liquid-chromatography-coupled mass spectrometry (LC–MS)
Data set [15] in a line: The drug is tested on Bacteroides vulgatus strain: ATCC8482 for biotransformation. The drug concentrations were measured before and after a 12-h incubation by liquid-chromatography-coupled mass spectrometry (LC–MS). The note with it: phocaeicola vulgatus, 2 µM.
A short description of data set [16]: The drug is tested on Enterobacter cancerogenus strain: ATCC35316 for biotransformation. The drug concentrations were measured before and after a 12-h incubation by liquid-chromatography-coupled mass spectrometry (LC–MS). The note with it: 2 µM.
A short description of data set [17]: The drug is tested on Bacteroides pectinophilus strain: ATCC43243 for biotransformation. The drug concentrations were measured before and after a 12-h incubation by liquid-chromatography-coupled mass spectrometry (LC–MS). The note with it: 2 µM.
Data set [18] in a line: The drug is tested on Ruminococcus gnavus strain: ATCC29149 for biotransformation. The drug concentrations were measured before and after a 12-h incubation by liquid-chromatography-coupled mass spectrometry (LC–MS). To be noted: mediterraneibacter gnavus, 2 µM.
The nature of data set [19]: The drug is tested on Bacteroides fragilis strain: HMW610 for biotransformation. The drug concentrations were measured before and after a 12-h incubation by liquid-chromatography-coupled mass spectrometry (LC–MS). The note with it: 2 µM.
The conditions of data set [20]: parabacteroides johnsonii, 12 h, 2 µM.
Description: The drug is tested on Parabacteroides johnsonii strain: DSM18315 for biotransformation. The drug concentrations were measured before and after a 12-h incubation by liquid-chromatography-coupled mass spectrometry (LC–MS)

The structures appear in SMILES notation.

Turning to `C#C[C@]1(OC(C)=O)CC[C@H]2[C@@H]3CCC4=C[C@@H](OC(C)=O)CC[C@@H]4[C@H]3CC[C@@]21C` [ETHYNODIOL DIACETATE], the “Bacterial Biotransformation” value in [1], in data set [2], in [3], in [4], in data set [5] and in data set [6] was “Compound NOT metabolized” in each case. Besides, the “Bacterial Biotransformation” value in data set [7], in data set [8], in data set [9], in data set [10], in data set [11] and in [12] was “Compound NOT metabolized” throughout. For the same compound, the “Bacterial Biotransformation” value in data set [13], in data set [14], in data set [15], in data set [16] and in [17] was “Compound NOT metabolized” each time.

With `CC(C)c1nc(N(C)S(C)(=O)=O)nc(-c2ccc(F)cc2)c1/C=C/[C@@H](O)C[C@@H](O)CC(=O)[O-].CC(C)c1nc(N(C)S(C)(=O)=O)nc(-c2ccc(F)cc2)c1/C=C/[C@@H](O)C[C@@H](O)CC(=O)[O-].[Ca+2]` [ROSUVASTATIN CALCIUM], the “Bacterial Biotransformation” value in data set [1], in data set [2], in data set [3], in [4], in [5] and in data set [6] was “Compound NOT metabolized” throughout. Besides, the “Bacterial Biotransformation” value in data set [8], in data set [9], in [10], in data set [11], in data set [12] and in [18] was “Compound NOT metabolized” in each case. Also, the “Bacterial Biotransformation” value in [13], in [14], in data set [15], in [16] and in data set [17] was “Compound NOT metabolized” throughout.

Regarding `CCCCCNC(=N)N/N=C/c1c[nH]c2ccc(OC)cc12.O=C(O)/C=C\C(=O)O` [TEGASEROD MALEATE], the “Bacterial Biotransformation” value in data set [1], in data set [2], in data set [3], in [4], in data set [19] and in data set [5] was “Compound NOT metabolized” throughout. Also, the “Bacterial Biotransformation” value in data set [6], in [7], in data set [8], in data set [9], in [10] and in [11] was “Compound NOT metabolized” throughout. Further, the “Bacterial Biotransformation” value in data set [12], in data set [18], in [20], in data set [13], in [14] and in data set [15] was “Compound NOT metabolized” in each case. In data set [17], the “Bacterial Biotransformation” value is on record as “Compound NOT metabolized”.

As to `CC(C)(C)NC[C@H](O)COc1nsnc1N1CCOCC1.O=C(O)/C=C\C(=O)O` [TIMOLOL MALEATE], the “Bacterial Biotransformation” value in data set [1], in data set [2], in [3], in data set [5], in data set [6] and in data set [7] was “Compound NOT metabolized” each time. Besides, the “Bacterial Biotransformation” value in [8], in data set [9], in [10], in data set [11], in data set [12] and in data set [18] was “Compound NOT metabolized” throughout. Further, the “Bacterial Biotransformation” value in data set [20], in data set [13], in data set [14], in data set [15], in data set [16] and in [17] was “Compound NOT metabolized” throughout.

With `COc1ccc(CN2CCNCC2)c(OC)c1OC.Cl.Cl` [TRIMETAZIDINE DIHYDROCHLORIDE], the “Bacterial Biotransformation” value in data set [1] is recorded as “Compound NOT metabolized”; in [2], “Compound metabolized”; in data set [3] it was “Compound NOT metabolized”; in data set [5], “Compound metabolized”; in data set [6], “Compound NOT metabolized”; in data set [7], “Compound NOT metabolized”. The “Bacterial Biotransformation” value in data set [8] is on record as “Compound metabolized”; in data set [9], “Compound NOT metabolized”; in data set [10], “Compound metabolized”; in data set [11], “Compound NOT metabolized”; in [12] it was “Compound metabolized”; in data set [18], “Compound NOT metabolized”. Moreover, the “Bacterial Biotransformation” value in data set [20] is listed as “Compound metabolized”; in data set [13], “Compound NOT metabolized”; in data set [14], “Compound metabolized”; in data set [15] it was “Compound metabolized”; in data set [16], “Compound NOT metabolized”; in [17], “Compound NOT metabolized”.

Regarding `COc1cc(C(=O)NCc2ccc(OCCN(C)C)cc2)cc(OC)c1OC` [TRIMETHOBENZAMIDE], the “Bacterial Biotransformation” value in data set [1], in [2], in data set [3], in data set [4], in data set [19] and in [5] was “Compound NOT metabolized” in each case. Further, the “Bacterial Biotransformation” value in [6], in [7], in data set [8], in [9], in [10] and in data set [11] was “Compound NOT metabolized” each time. Further, the “Bacterial Biotransformation” value in data set [12], in [18], in data set [20], in [13], in data set [14] and in [15] was “Compound NOT metabolized” throughout. Also, in data set [17], the “Bacterial Biotransformation” value is “Compound NOT metabolized”.
